Measurements published in ChEMBL document CHEMBL3352116, “Discovery heralds new approach to the treatment of cystic fibrosis” (J Med Chem, 2014).

Key:
[1] = biological target: Cystic fibrosis transmembrane conductance regulator (Homo sapiens, UniProt P13569); experiment: Corrector activity at CFTR mutant (unknown origin) by phenotypic screening assay
[2] = Inhibition of CYP450 (unknown origin); type: ADME; details: human
[3] = biological target: Cystic fibrosis transmembrane conductance regulator (Homo sapiens, UniProt P13569, F508DEL/G551D); experiment: […] activity at human bronchial epithelium CFTR F508del and G551D mutant assessed as increase in channel gating
Sequence of Cystic fibrosis transmembrane conductance regulator (Homo sapiens, UniProt P13569, F508DEL/G551D) (P13569 as listed by the source): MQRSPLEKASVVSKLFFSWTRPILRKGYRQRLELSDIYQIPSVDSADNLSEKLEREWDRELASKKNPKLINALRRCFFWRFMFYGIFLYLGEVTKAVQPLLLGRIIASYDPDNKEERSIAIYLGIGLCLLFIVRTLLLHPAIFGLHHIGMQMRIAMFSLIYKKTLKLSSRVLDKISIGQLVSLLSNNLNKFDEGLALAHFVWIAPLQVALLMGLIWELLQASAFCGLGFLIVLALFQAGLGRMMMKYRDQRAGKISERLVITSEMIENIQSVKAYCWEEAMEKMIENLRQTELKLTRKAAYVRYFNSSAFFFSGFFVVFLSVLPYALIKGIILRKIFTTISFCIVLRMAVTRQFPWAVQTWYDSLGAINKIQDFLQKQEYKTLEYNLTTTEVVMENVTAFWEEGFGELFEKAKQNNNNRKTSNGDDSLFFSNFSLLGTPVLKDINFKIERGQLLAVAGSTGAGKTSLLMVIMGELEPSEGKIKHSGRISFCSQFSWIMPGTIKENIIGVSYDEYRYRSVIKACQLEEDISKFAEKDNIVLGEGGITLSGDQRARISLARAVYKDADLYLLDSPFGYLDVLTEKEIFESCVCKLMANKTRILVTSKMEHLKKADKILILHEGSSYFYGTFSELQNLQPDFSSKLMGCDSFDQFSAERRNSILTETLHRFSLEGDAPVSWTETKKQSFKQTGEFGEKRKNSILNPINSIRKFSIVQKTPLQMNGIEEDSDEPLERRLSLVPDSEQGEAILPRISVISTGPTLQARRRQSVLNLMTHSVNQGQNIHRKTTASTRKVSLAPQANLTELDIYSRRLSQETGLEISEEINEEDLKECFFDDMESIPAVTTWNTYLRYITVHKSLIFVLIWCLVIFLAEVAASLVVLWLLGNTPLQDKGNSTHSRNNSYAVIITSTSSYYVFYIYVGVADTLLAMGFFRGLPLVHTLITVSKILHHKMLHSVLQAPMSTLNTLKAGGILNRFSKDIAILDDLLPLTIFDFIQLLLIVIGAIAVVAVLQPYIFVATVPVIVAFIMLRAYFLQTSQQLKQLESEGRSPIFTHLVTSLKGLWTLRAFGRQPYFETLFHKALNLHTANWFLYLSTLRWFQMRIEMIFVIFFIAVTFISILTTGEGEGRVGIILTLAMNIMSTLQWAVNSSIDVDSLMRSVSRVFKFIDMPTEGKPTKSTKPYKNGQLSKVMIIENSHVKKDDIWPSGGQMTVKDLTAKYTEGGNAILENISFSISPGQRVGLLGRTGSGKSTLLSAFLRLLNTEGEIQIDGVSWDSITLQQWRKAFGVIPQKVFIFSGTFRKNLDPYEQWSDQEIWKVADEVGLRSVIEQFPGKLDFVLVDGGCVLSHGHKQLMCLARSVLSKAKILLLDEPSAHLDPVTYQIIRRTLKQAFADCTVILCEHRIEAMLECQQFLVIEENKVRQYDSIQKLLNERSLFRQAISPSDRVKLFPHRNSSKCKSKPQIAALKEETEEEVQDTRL

[4] = Half life in rat; type: ADME, organism-based; details: in vivo
[5] = Oral bioavailability in rat; type: ADME, organism-based; details: in vivo

Sequence of Cystic fibrosis transmembrane conductance regulator (Homo sapiens, UniProt P13569) (P13569 whole entry, looked up, change not shown): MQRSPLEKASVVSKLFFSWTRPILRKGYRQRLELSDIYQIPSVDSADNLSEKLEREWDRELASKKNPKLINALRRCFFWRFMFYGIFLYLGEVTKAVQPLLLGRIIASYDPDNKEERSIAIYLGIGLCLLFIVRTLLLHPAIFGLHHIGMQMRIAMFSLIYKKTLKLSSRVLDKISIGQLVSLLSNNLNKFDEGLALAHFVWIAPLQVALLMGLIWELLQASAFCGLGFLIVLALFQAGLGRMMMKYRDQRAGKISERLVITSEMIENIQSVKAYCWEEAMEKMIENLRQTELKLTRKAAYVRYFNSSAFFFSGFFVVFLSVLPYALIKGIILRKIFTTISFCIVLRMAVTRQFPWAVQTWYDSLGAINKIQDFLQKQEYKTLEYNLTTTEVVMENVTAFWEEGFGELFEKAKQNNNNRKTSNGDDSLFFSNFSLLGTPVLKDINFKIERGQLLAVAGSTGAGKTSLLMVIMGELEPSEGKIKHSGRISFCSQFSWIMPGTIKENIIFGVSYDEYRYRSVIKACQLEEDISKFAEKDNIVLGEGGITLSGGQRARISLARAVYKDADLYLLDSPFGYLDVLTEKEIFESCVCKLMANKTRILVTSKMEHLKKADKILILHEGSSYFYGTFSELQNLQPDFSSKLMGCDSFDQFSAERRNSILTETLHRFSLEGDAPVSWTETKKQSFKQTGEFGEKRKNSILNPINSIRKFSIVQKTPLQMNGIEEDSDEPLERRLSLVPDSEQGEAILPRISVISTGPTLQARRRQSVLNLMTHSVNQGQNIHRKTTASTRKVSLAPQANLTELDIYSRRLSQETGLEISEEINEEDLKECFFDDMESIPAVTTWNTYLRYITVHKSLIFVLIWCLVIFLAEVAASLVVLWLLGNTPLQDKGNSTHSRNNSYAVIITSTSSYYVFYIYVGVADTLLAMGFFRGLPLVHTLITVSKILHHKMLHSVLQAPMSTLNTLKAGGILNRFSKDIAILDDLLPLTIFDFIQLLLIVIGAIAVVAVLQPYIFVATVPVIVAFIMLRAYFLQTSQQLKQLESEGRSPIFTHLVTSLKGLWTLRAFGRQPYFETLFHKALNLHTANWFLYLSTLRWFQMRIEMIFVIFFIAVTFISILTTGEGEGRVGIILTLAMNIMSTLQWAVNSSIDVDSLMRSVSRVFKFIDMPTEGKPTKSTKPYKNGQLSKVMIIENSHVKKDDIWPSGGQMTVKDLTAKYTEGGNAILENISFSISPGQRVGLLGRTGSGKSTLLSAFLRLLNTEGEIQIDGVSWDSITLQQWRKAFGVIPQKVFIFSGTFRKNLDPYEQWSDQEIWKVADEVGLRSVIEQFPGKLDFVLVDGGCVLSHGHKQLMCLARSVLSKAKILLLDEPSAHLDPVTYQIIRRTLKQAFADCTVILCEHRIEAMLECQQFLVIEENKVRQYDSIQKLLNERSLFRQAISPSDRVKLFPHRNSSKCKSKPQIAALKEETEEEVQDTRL

EC50 [1] [nM] | inhibition (INH) [2] | EC50 [3] [nM] | half-life [4] [h] | bioavailability [5] [%] | Structure (SMILES)
2100 | – | – | – | – | O=C(c1c[nH]c2ccccc2c1=O)N(Cc1ccccc1)Cc1ccccc1
100 | – | – | – | – | O=C(Nc1ccc2cc[nH]c2c1)c1c[nH]c2ccccc2c1=O
3 | Not Active | 236 | 9.5 | 55 | CC(C)(C)c1cc(C(C)(C)C)c(NC(=O)c2c[nH]c3ccccc3c2=O)cc1O [IVACAFTOR]
